Assays:
[1] = Analytical determination of active ingredient in the leachate (water, UV-Vis); format: physicochemical; details: active 5% in water
Protocol: The active ingredient is added (5%) to required amount of water. After a certain amount of time, the leachate is collected through a filter and the same amount of water replaced. The amount of active ingredients of each leachate is determined analytically by UV-Vis.

[2] = Analytical determination of active ingredient leaching out of a paint film (UV-Visible); format: physicochemical; details: PVA paint film, total IPBC incorporated 2000 ppm
Protocol: The active ingredient is added to PVA paint to a final concentration of 2000 ppm. Drawdown of the paint samples are prepared by casting a 3-mil film onto drawdown paperboard (Lanetta). The drawdown samples are allowed to dry at room temperature for 24 hrs. A sample of 2×6 cm is cut. The cut samples are then placed in 100 ml of water in a closed beaker for the different duration of time limits. At different time intervals the water is collected and replaced with the same amount of water. The quantity of the active ingredient present in each leachate is determined by UV-Visible spectroscopic method.

[3] = test system: Escherichia coli ATCC 11229; test: Antimicrobial activity (log reduction) on flexible PVC surface, Z 2801:2000; format: cell-based; details: 24 hrs incubation
Protocol: (§1) The aqueous biocidal dispersion containing encapsulated biocide was prepared as described in example 19 to provide 20% BIT (prepared as described in Example 5). The dispersion was incorporated into flexible PVC using a Brabender. The plastic samples containing different BIT concentrations were tested according to the Japanese HS Z 2801:2000 entitled “Antimicrobial products-test for antimicrobial activity and efficacy.”
(§2) Briefly, samples were inoculated on the surface with bacterial strains such as Escherichia coli ATCC 11229 or Staphylococcus aureus ATCC 6538. After 24 hrs of incusbation, the samples were examined to determine the number of bacterial count left on the surface of the sample. A reduction in the bacterial population or count was estimated based on the plate count of the control (untreated or blank) sample and treated samples. The results of this activity indicate that aqueous biocidal dispersion prepared according to the present invention provides better antibacterial activity through larger log reduction and is shown in Table 3.

[4] = test system: Staphylococcus aureus ATCC 6538; test: as above; format: cell-based; details: 24 hrs incubation
Protocol: as §1, §2

Question: Which results are given for CCNc1nc(NC(C)(C)C)nc(SC)n1 [Non-encapsulated Terbutryn, Terbutryn]?
Answer: Terbutryn in water (in ppm) ([1]; leaching time 5 minutes): 150 ppm; Terbutryn in water (in ppm) ([1]; leaching time 1 hr): 90 ppm; Terbutryn in water (in ppm) ([1]; leaching time 24 hrs): 79.8 ppm

Question: Which “IPBC in water (in ppm)” value ([1]; leaching time 5 minutes) does the source give for CCCCNC(=O)OCC#CI [Non-encapsulated IPBC, 3-iodo-2-propargyl butyl carbamate] here?
Answer: 356 ± 4 ppm

Question: And the “IPBC in water (in ppm)” value ([1]; leaching time 1 hr)?
Answer: 273 ± 10 ppm

Question: And the “IPBC in water (in ppm)” value ([1]; leaching time 24 hrs)?
Answer: 236 ± 22 ppm

Question: And the “IPBC (in ppm) leached from Paint film” value ([2]; leaching time 1 hr)?
Answer: 1050 ppm

Question: And the “IPBC (in ppm) leached from Paint film” value ([2]; leaching time 3 hrs)?
Answer: 102 ppm

Question: And the “IPBC (in ppm) leached from Paint film” value ([2]; leaching time 15 hrs)?
Answer: 65 ppm

Question: And the “IPBC (in ppm) leached from Paint film” value ([2]; leaching time 48 hrs)?
Answer: 78 ppm

Question: What does the source list for O=c1[nH]sc2ccccc12 [BIT, 1,2-benzisothiazoline-3-one]?
Answer: Antimicrobial Activity (Log Reduction) E. coli ([3]; 100 ppm in flexible PVC): 0.9; Antimicrobial Activity (Log Reduction) E. coli ([3]; 250 ppm in flexible PVC): 2.5; Antimicrobial Activity (Log Reduction) S. aureus ([4]; 100 ppm in flexible PVC): 0.2; Antimicrobial Activity (Log Reduction) S. aureus ([4]; 250 ppm in flexible PVC): 0.6

Question: Which “Diuron in water (in ppm)” value ([1]; leaching time 30 minutes) does the source give for CN(C)C(=O)Nc1ccc(Cl)c(Cl)c1 [Non-encapsulated Diuron, Diuron] here?
Answer: 53.6 ppm

Question: And the “Diuron in water (in ppm)” value ([1]; leaching time 2 hrs)?
Answer: 51.4 ppm

Question: And the “Diuron in water (in ppm)” value ([1]; leaching time 4 hrs)?
Answer: 54.6 ppm

Question: And the “Diuron in water (in ppm)” value ([1]; leaching time 20 hrs)?
Answer: 52.0 ppm
